These results are taken from PubChem BioAssay AID248 (DTP/NCI, 2004).

Toxic doses and inconclusive results are not listed.

The subject of this test is L1210 leukemia ip in BDF1 mice, survival T/C. The test is described as follows: NCI In Vivo Anticancer Drug Screen. Data for tumor model L1210 Leukemia (intraperitoneal) in B6D2F1 (BDF1) mice. The conditions noted are these: endpoint: mean survival time, higher = longer survival. Put shortly:
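Tumor was transplanted into mice, which were then dosed with test compound or vehicle alone. Survival was recorded for each group, and the treated figure was expressed relative to the control figure.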

Where [1] appears, read: dose: 25.0 mg/kg/injection, schedule: Q04DX002 (ip), vehicle: saline with Tween-80.
[2] abbreviates: dose: 100.0 mg/kg/injection, schedule: Q04DX003 (ip), vehicle: saline.
[3] abbreviates: dose: 200.0 mg/kg/injection, schedule: Q04DX003 (ip), vehicle: saline.
Where [4] appears, read: dose: 400.0 mg/kg/injection, schedule: Q04DX003 (ip), vehicle: saline.
The mark [5] stands for this setting: dose: 100.0 mg/kg/injection, schedule: Q01DX009 (ip), vehicle: saline with Tween-80.
The mark [6] stands for this setting: dose: 200.0 mg/kg/injection, schedule: Q01DX009 (ip), vehicle: saline with Tween-80.
The mark [7] stands for this setting: dose: 100.0 mg/kg/injection, schedule: Q04DX003 (ip), vehicle: saline with Tween-80.
The mark [8] stands for this setting: dose: 200.0 mg/kg/injection, schedule: Q04DX003 (ip), vehicle: saline with Tween-80.
Where [9] appears, read: dose: 400.0 mg/kg/injection, schedule: Q04DX003 (ip), vehicle: saline with Tween-80.
The mark [10] stands for this setting: dose: 25.0 mg/kg/injection, schedule: Q04DX002 (ip), vehicle: Klucel (hydroxypropylcellulose) (HPC).
Where [11] appears, read: dose: 50.0 mg/kg/injection, schedule: Q04DX002 (ip), vehicle: Klucel (hydroxypropylcellulose) (HPC).
The mark [12] stands for this setting: dose: 100.0 mg/kg/injection, schedule: Q04DX002 (ip), vehicle: Klucel (hydroxypropylcellulose) (HPC).
Where [13] appears, read: dose: 100.0 mg/kg/injection, schedule: Q01DX001 (ip), vehicle: Klucel (hydroxypropylcellulose) (HPC).

With `CC[CH2][Sn]([CH2]CC)([CH2]CC)[CH2]Cc1ccncc1`, the T/C was 101 % of control (dose: 6.25 mg/kg/injection, schedule: Q04DX002 (ip), vehicle: saline with Tween-80); 93 % of control (dose: 12.5 mg/kg/injection, schedule: Q04DX002 (ip), vehicle: saline with Tween-80); 89 % of control under setting [1].

As to `N#Cc1cccc(/C=C/C=C\c2ccc([N+](=O)[O-])cc2)c1`, the T/C by setting is: (dose: 100.0 mg/kg/injection, schedule: Q01DX009 (ip), vehicle: Klucel (hydroxypropylcellulose) (HPC)) 89 % of control; (dose: 200.0 mg/kg/injection, schedule: Q01DX009 (ip), vehicle: Klucel (hydroxypropylcellulose) (HPC)) 95 % of control.

For the molecule `CN(C)CC(=O)Nc1ccc(NC(=O)c2ccc(C(=O)Nc3ccc(NC(=O)CN(C)C)cc3)cc2)cc1`, the T/C is, setting by setting: (dose: 15.0 mg/kg/injection, schedule: Q01DX Z (ip), vehicle: methylcellulose (MC)) 104 % of control; (dose: 30.0 mg/kg/injection, schedule: Q01DX Z (ip), vehicle: methylcellulose (MC)) 106 % of control; (dose: 60.0 mg/kg/injection, schedule: Q01DX Z (ip), vehicle: methylcellulose (MC)) 93 % of control; (dose: 120.0 mg/kg/injection, schedule: Q01DX Z (ip), vehicle: methylcellulose (MC)) 95 % of control.

Regarding `COC(=O)C12COC(=O)C1COC2=O` (stereo not drawn), the T/C under setting [2] is 100 % of control, the T/C under setting [3] was 98 % of control and the T/C under setting [4] is 109 % of control.

On to `C(=NCC(CCN1CCCC1)(CCN1CCCC1)c1cccc2ccccc12)C(CCN1CCCC1)(CCN1CCCC1)c1cccc2ccccc12`, for which the T/C (dose: 5.0 mg/kg/injection, schedule: Q01DX009 (ip), vehicle: saline with Tween-80) was 106 % of control; the T/C (dose: 6.25 mg/kg/injection, schedule: Q04DX002 (ip), vehicle: saline) is 92 % of control; the T/C (dose: 10.0 mg/kg/injection, schedule: Q01DX009 (ip), vehicle: saline with Tween-80) is 106 % of control; the T/C (dose: 12.5 mg/kg/injection, schedule: Q04DX002 (ip), vehicle: saline) was 101 % of control.

Regarding `CC(C)CN(CCCCO)CC(C)C`, the T/C runs as follows: under setting [5], 95 % of control; under setting [2], 100 % of control; under setting [6], 103 % of control; under setting [3], 100 % of control; under setting [4], 100 % of control.

With `COc1ccc(-c2nnc3n2C(C)(C)N=C(N)N3)cc1`, the T/C runs as follows: under setting [7], 94 % of control; under setting [8], 100 % of control; under setting [9], 97 % of control.

For `O=c1cc(O)nc[nH]1`, the T/C (dose: 220.0 mg/kg/injection, schedule: Q01DX Z (oral), vehicle: methylcellulose (MC)) was 105 % of control; the T/C (dose: 330.0 mg/kg/injection, schedule: Q01DX Z (oral), vehicle: methylcellulose (MC)) is 100 % of control; the T/C (dose: 500.0 mg/kg/injection, schedule: Q01DX Z (oral), vehicle: methylcellulose (MC)) is 95 % of control.

For the molecule `CCNC(=O)C1C(c2ccccc2)C1c1ccccc1` (stereo not drawn), the T/C is 97 % of control under setting [10], 102 % of control under setting [11] and 102 % of control under setting [12].

For the molecule `CCCCCCCCCCN=C(N)N/C(N)=N/S(=O)(=O)c1ccc(OCCCCCCCCC)cc1`, the T/C is 97 % of control under setting [12]; 89 % of control (dose: 200.0 mg/kg/injection, schedule: Q04DX002 (ip), vehicle: Klucel (hydroxypropylcellulose) (HPC)); 89 % of control (dose: 400.0 mg/kg/injection, schedule: Q04DX002 (ip), vehicle: Klucel (hydroxypropylcellulose) (HPC)).

Regarding `c1ccc(C2=NCN=C2c2ccccc2)cc1`, the T/C (dose: 100.0 mg/kg/injection, schedule: Q04DX003 (ip), vehicle: Klucel (hydroxypropylcellulose) (HPC)) was 99 % of control; the T/C (dose: 200.0 mg/kg/injection, schedule: Q04DX003 (ip), vehicle: Klucel (hydroxypropylcellulose) (HPC)) was 101 % of control; the T/C (dose: 400.0 mg/kg/injection, schedule: Q04DX003 (ip), vehicle: Klucel (hydroxypropylcellulose) (HPC)) is 92 % of control.

Take `COc1ccc(CO)cc1`: the T/C by setting is: (dose: 75.0 mg/kg/injection, schedule: Q04DX003 (ip), vehicle: Klucel (hydroxypropylcellulose) (HPC)) 95 % of control; (dose: 150.0 mg/kg/injection, schedule: Q04DX003 (ip), vehicle: Klucel (hydroxypropylcellulose) (HPC)) 101 % of control; (dose: 300.0 mg/kg/injection, schedule: Q04DX003 (ip), vehicle: Klucel (hydroxypropylcellulose) (HPC)) 91 % of control.

In the case of `CCP(=O)(CCP(=O)(c1ccccc1)c1ccccc1)c1ccccc1` (stereo not drawn), the T/C by setting is: under setting [1], 97 % of control; (dose: 50.0 mg/kg/injection, schedule: Q04DX002 (ip), vehicle: saline with Tween-80) 103 % of control; (dose: 100.0 mg/kg/injection, schedule: Q04DX002 (ip), vehicle: saline with Tween-80) 106 % of control.

Take `O=C(Nc1cccc(NC(=O)Nc2cccc(C3=NCCN3)c2)c1)Nc1cccc(C2=NCCN2)c1`: the T/C (dose: 16.4 mg/kg/injection, schedule: Q01DX Z (ip), vehicle: carboxymethylcellulose (CMC)) is 121 % of control; the T/C (dose: 27.0 mg/kg/injection, schedule: Q01DX Z (ip), vehicle: carboxymethylcellulose (CMC)) is 156 % of control; the T/C (dose: 37.0 mg/kg/injection, schedule: Q01DX Z (ip), vehicle: carboxymethylcellulose (CMC)) is 121 % of control; the T/C (dose: 55.5 mg/kg/injection, schedule: Q01DX Z (ip), vehicle: carboxymethylcellulose (CMC)) was 123 % of control; the T/C (dose: 66.0 mg/kg/injection, schedule: Q01DX Z (ip), vehicle: carboxymethylcellulose (CMC)) was 107 % of control; the T/C (dose: 83.3 mg/kg/injection, schedule: Q01DX Z (ip), vehicle: carboxymethylcellulose (CMC)) was 121 % of control. The T/C was 107 % of control (dose: 90.0 mg/kg/injection, schedule: Q01DX Z (ip), vehicle: saline); 101 % of control (dose: 125.0 mg/kg/injection, schedule: Q01DX Z (ip), vehicle: carboxymethylcellulose (CMC)); 104 % of control (dose: 187.5 mg/kg/injection, schedule: Q01DX Z (ip), vehicle: carboxymethylcellulose (CMC)).

For `CCOC(=O)c1cc(-c2ccccc2)c(-c2ccccc2)c(-c2ccccc2)c1-c1ccccc1`, the T/C by setting is: (dose: 50.0 mg/kg/injection, schedule: Q01DX001 (ip), vehicle: carboxymethylcellulose (CMC)) 97 % of control; (dose: 100.0 mg/kg/injection, schedule: Q01DX001 (ip), vehicle: carboxymethylcellulose (CMC)) 100 % of control; (dose: 200.0 mg/kg/injection, schedule: Q01DX001 (ip), vehicle: carboxymethylcellulose (CMC)) 97 % of control.

Take `CS(=O)(=O)N1CC(O)CN(S(C)(=O)=O)CC(O)C1` (stereo not drawn): the T/C is 100 % of control under setting [10], 100 % of control under setting [11] and 110 % of control under setting [12].

For the molecule `CCOC(=O)C(OCc1ccccc1)(C(=O)N1CCCCCC1=O)C(C)C` (stereo not drawn), the T/C reads like this: under setting [5], 90 % of control; under setting [6], 90 % of control; (dose: 400.0 mg/kg/injection, schedule: Q01DX009 (ip), vehicle: saline with Tween-80) 100 % of control.

As to `Clc1nc(Cl)n2c(Cl)cncc12`, the T/C was 96 % of control (dose: 25.0 mg/kg/injection, schedule: Q04DX003 (ip), vehicle: saline with Tween-80); 103 % of control (dose: 50.0 mg/kg/injection, schedule: Q04DX003 (ip), vehicle: saline with Tween-80); 96 % of control under setting [7].

With `CN(C(=O)NCCCl)c1cccc2c1CCCC2`, the T/C by setting is: under setting [13], 97 % of control; (dose: 200.0 mg/kg/injection, schedule: Q01DX001 (ip), vehicle: Klucel (hydroxypropylcellulose) (HPC)) 105 % of control; (dose: 400.0 mg/kg/injection, schedule: Q01DX001 (ip), vehicle: Klucel (hydroxypropylcellulose) (HPC)) 111 % of control.

As for `COc1cc(-c2cnc(N)nc2N)cc(OC)c1OC`, the T/C is, setting by setting: under setting [7], 97 % of control; under setting [8], 103 % of control; under setting [9], 95 % of control.

`COC1=C2CCCCC2=[N+]2CCc3ccccc3C2C1` (stereo not drawn): the T/C under setting [13] was 93 % of control.

Turning to `COc1ccc(OC)c2c(=O)c(C(=O)O)c[nH]c12`, the T/C is, setting by setting: (dose: 100.0 mg/kg/injection, schedule: Q01DX001 (ip), vehicle: saline) 102 % of control; (dose: 200.0 mg/kg/injection, schedule: Q01DX001 (ip), vehicle: saline) 100 % of control; (dose: 400.0 mg/kg/injection, schedule: Q01DX001 (ip), vehicle: saline) 105 % of control.
